# Test results reported in article PMC4522657, “Identification of a DYRK1A Inhibitor that Induces Degradation of the Target Kinase using Co-chaperone CDC37 fused with Luciferase nanoKAZ” (Scientific Reports, 2015).
# Columns and labels:
# Experiment in all cases: Kinase panel, CaNDY 1 µM
# Type in all cases: biochemical
# Settings in all cases: CaNDY 1 µM relative to DMSO
# [1] = target: T1, AMPKα2/β1/γ1 (Homo sapiens, UniProt P54646)
# T1 construct: purchased Carna Biosciences
# From the text: (§1) Detailed information on the assay conditions is available on the website of Carna Biosciences (http://www.carnabio.com/english/index.html; Kobe, Japan). In brief, full-length human recombinant kinases were expressed using a baculovirus expression system as amino-terminal GST-fusion proteins, and purified by glutathione-Sepharose chromatography. The GenBank accession numbers of DYRK1A, DYRK1B, DYRK2, and DYRK3 were NP_001387.2, NP_004705.1, NP_003574.1, and NP_003573.2. Kinase activities were evaluated by Off-chip Mobility Shift Assay after reaction of 1 μM of the substrate DYRKtide-F with ATP (25 μM for DYRK1A, 50 μM for DYRK1B, 10 μM for DYRK2, and 5 μM for DYRK3). For each compound, a DMSO solution was diluted in assay buffer to yield a final concentration of 1% DMSO. After incubation for one hour at room temperature, substrate phosphorylation was analyzed by electrophoretic separation of the substrate and products using a Caliper LC3000 platform (Caliper Life Sciences, Mountain View, CA, USA). The phosphorylated product (P)/(P + substrate) ratio was calculated at each concentration of each small molecule and the percent inhibition was expressed relative to a control assay in the absence of the small molecule. […] The IC50 of each compound was calculated by interpolation on a log-concentration-response curve fitted with a four-parameter logistic equation.
# (§2) All kinase assays were carried out at Carna Biosciences. The inhibitory map was made with Kinome Render[36].
# [2] = target: T2, AXL (Homo sapiens, UniProt P30530)
# T2 construct: purchased Carna Biosciences
# From the text: as §1, §2
# [3] = target: T3, BRK (Homo sapiens, UniProt Q13882)
# T3 construct: purchased Carna Biosciences
# From the text: as §1, §2
# [4] = target: T4, BTK (Homo sapiens, UniProt Q06187)
# T4 construct: purchased Carna Biosciences
# From the text: as §1, §2
# [5] = target: T5, CK1ε (Homo sapiens, UniProt P49674)
# T5 construct: purchased Carna Biosciences
# From the text: as §1, §2
# [6] = target: T6, CaMK2δ (Homo sapiens, UniProt Q13557)
# T6 construct: purchased Carna Biosciences
# From the text: as §1, §2
# [7] = target: T7, DDR1 (Homo sapiens, UniProt Q08345)
# T7 construct: purchased Carna Biosciences
# From the text: as §1, §2
# [8] = target: T8, DYRK3 (Homo sapiens, UniProt O43781)
# T8 construct: purchased Carna Biosciences
# T8 sequence (O43781 whole entry): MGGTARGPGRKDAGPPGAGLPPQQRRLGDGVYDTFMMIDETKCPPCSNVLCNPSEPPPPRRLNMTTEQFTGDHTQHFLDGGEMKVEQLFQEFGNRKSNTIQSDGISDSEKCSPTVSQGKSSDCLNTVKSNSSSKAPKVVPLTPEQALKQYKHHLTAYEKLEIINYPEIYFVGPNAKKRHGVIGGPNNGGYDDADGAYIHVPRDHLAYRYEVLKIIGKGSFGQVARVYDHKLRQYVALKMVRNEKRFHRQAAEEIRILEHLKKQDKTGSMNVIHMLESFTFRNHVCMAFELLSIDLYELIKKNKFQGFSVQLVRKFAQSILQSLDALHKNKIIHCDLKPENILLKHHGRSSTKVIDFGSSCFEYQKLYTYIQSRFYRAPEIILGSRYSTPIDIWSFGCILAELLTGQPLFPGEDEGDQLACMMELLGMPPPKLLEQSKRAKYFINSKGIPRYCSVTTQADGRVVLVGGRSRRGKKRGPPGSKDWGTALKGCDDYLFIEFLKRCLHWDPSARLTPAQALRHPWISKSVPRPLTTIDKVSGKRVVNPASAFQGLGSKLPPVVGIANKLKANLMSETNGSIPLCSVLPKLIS
# From the text: as §1, §2
# [9] = target: T9, EGFR(d746-750) (Homo sapiens, UniProt P00533, DEL746-750)
# T9 construct: purchased Carna Biosciences
# From the text: as §1, §2
# [10] = target: T10, EML4-ALK (Homo sapiens, UniProt Q9UM73)
# T10 construct: purchased Carna Biosciences
# T10 sequence (Q9UM73 whole entry, looked up): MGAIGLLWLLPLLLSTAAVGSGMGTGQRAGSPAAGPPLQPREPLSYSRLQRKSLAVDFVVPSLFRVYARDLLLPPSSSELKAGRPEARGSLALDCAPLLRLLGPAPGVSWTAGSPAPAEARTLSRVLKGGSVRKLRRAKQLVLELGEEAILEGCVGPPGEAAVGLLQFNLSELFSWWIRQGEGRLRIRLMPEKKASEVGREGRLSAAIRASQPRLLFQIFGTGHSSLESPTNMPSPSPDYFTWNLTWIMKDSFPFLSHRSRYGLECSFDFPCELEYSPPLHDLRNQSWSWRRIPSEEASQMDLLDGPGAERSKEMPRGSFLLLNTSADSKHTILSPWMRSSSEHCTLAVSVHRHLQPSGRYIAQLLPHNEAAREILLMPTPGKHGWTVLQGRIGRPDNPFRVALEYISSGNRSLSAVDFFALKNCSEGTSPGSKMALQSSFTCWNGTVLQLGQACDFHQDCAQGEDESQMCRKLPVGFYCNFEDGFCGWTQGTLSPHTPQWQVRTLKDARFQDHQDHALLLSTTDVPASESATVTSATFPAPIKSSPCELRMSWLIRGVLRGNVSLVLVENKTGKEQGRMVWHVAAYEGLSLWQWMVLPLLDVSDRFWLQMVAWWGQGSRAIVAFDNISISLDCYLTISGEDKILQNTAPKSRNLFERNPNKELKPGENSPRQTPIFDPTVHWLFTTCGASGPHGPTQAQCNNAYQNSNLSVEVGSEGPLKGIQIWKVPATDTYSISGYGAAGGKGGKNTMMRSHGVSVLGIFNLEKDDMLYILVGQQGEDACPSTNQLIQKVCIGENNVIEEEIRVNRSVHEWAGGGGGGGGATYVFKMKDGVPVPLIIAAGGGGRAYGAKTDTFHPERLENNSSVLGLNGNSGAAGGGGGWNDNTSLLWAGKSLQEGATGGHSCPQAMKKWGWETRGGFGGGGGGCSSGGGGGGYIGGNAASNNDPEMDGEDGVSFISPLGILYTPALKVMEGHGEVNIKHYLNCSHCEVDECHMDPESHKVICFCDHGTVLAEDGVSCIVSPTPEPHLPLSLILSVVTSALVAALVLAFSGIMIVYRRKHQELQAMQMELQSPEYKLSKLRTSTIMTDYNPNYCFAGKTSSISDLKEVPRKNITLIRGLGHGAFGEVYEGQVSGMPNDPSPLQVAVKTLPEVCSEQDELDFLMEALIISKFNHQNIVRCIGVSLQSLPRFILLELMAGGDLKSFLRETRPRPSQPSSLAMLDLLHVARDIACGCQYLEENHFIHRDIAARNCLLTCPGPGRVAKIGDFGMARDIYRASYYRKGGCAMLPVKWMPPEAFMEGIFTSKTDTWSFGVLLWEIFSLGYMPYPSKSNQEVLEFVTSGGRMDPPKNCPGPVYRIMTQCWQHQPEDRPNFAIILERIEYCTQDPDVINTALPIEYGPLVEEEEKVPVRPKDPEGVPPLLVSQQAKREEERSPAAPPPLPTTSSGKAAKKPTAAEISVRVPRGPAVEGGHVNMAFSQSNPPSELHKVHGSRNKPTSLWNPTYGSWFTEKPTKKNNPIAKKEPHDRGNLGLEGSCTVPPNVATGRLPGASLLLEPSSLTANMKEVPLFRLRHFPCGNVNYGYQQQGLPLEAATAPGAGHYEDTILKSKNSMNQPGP
# From the text: as §1, §2
# [11] = target: T11, EPHA2 (Homo sapiens, UniProt P29317)
# T11 construct: purchased Carna Biosciences
# T11 sequence (P29317 24-976): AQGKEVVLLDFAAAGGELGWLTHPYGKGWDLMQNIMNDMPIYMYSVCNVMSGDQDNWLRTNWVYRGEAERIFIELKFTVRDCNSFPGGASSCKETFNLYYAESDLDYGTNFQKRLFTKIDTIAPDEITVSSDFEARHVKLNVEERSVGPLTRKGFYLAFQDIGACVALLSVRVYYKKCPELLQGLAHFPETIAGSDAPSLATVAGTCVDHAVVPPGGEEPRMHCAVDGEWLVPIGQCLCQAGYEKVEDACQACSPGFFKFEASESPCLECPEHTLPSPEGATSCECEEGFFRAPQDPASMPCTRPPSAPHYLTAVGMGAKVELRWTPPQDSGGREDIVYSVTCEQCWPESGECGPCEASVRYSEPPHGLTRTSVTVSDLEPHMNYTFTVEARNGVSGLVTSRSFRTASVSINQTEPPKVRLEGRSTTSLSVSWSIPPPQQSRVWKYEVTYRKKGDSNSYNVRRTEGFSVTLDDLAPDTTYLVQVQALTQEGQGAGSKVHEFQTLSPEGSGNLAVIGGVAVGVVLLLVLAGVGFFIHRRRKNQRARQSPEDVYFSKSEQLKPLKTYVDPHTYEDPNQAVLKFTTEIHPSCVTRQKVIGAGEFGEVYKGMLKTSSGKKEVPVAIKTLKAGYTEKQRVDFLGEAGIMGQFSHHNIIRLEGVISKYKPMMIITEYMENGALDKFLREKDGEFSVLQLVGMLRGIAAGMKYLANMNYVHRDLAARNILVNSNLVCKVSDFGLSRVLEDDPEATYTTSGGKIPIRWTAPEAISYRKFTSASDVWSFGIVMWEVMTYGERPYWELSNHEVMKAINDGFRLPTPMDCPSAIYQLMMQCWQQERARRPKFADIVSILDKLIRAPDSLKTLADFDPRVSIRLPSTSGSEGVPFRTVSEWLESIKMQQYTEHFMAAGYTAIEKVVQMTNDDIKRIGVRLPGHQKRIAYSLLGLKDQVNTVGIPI
# From the text: as §1, §2
# [12] = target: T12, EPHB1 (Homo sapiens, UniProt P54762)
# T12 construct: purchased Carna Biosciences
# From the text: as §1, §2
# [13] = target: T13, EPHB4 (Homo sapiens, UniProt P54760)
# T13 construct: purchased Carna Biosciences
# From the text: as §1, §2
# [14] = target: T14, FAK (Homo sapiens, UniProt Q05397)
# T14 construct: purchased Carna Biosciences
# From the text: as §1, §2
# [15] = target: T15, FES (Homo sapiens, UniProt P07332)
# T15 construct: purchased Carna Biosciences
# From the text: as §1, §2
# [16] = target: T16, FMS (Homo sapiens, UniProt P07333)
# T16 construct: purchased Carna Biosciences
# From the text: as §1, §2
# [17] = target: T17, HIPK2 (Homo sapiens, UniProt Q9H2X6)
# T17 construct: purchased Carna Biosciences
# From the text: as §1, §2
# [18] = target: T18, HIPK3 (Homo sapiens, UniProt Q9H422)
# T18 construct: purchased Carna Biosciences
# From the text: as §1, §2
# [19] = target: T19, IKKα (Homo sapiens, UniProt O15111)
# T19 construct: purchased Carna Biosciences
# From the text: as §1, §2
# [20] = target: T20, JAK2 (Homo sapiens, UniProt O60674)
# T20 construct: purchased Carna Biosciences
# T20 sequence (O60674 whole entry): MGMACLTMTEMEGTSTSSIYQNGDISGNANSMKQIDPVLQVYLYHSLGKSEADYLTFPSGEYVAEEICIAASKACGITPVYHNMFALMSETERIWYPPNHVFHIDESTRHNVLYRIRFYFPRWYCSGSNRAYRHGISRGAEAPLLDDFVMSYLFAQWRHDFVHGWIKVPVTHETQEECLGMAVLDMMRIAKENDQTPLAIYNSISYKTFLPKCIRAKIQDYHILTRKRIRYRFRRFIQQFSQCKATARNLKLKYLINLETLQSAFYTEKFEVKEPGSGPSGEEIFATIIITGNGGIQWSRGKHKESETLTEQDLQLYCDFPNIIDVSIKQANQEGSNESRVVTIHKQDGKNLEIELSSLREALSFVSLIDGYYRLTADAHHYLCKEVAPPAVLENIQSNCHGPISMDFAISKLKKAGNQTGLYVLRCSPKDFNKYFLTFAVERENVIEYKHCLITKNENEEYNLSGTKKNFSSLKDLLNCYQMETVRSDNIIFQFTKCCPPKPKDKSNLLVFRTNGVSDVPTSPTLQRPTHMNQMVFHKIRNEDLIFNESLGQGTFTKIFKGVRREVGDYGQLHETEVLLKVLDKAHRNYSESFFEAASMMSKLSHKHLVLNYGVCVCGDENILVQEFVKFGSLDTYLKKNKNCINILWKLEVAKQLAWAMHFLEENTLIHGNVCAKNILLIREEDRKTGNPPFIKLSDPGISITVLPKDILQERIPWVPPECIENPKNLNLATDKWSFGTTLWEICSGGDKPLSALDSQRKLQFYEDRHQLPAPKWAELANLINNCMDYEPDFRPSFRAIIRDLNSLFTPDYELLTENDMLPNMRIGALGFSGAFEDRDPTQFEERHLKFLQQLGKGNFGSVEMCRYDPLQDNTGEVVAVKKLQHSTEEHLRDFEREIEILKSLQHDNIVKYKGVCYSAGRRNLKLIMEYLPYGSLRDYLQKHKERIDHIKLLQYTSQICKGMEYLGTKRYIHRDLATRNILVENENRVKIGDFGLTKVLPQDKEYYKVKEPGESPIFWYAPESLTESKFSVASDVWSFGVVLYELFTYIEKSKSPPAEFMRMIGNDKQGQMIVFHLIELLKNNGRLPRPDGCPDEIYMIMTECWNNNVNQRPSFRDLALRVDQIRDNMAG
# From the text: as §1, §2
# [21] = target: T21, JNK2 (Homo sapiens, UniProt P45984)
# T21 construct: purchased Carna Biosciences
# From the text: as §1, §2
# [22] = target: T22, MAP2K4_Cascade (Homo sapiens, UniProt P45985)
# T22 construct: purchased Carna Biosciences
# From the text: as §1, §2
# [23] = target: T23, MARK4 (Homo sapiens, UniProt Q96L34)
# T23 construct: purchased Carna Biosciences
# From the text: as §1, §2
# [24] = target: T24, MLK3_Cascade (Homo sapiens, UniProt Q16584)
# T24 construct: purchased Carna Biosciences
# From the text: as §1, §2
# [25] = target: T25, MOS_Cascade (Homo sapiens, UniProt P00540)
# T25 construct: purchased Carna Biosciences
# From the text: as §1, §2
# [26] = target: T26, MUSK (Homo sapiens, UniProt O15146)
# T26 construct: purchased Carna Biosciences
# From the text: as §1, §2
# [27] = target: T27, NEK9 (Homo sapiens, UniProt Q8TD19)
# T27 construct: purchased Carna Biosciences
# From the text: as §1, §2
# [28] = target: T28, PAK4 (Homo sapiens, UniProt O96013)
# T28 construct: purchased Carna Biosciences
# From the text: as §1, §2
# [29] = target: T29, PASK (Homo sapiens, UniProt Q96RG2)
# T29 construct: purchased Carna Biosciences
# From the text: as §1, §2
# [30] = target: T30, PDGFRβ (Homo sapiens, UniProt P09619)
# T30 construct: purchased Carna Biosciences
# From the text: as §1, §2
# [31] = target: T31, RET(M918T) (Homo sapiens, UniProt P07949, M918T)
# T31 construct: purchased Carna Biosciences
# From the text: as §1, §2
# [32] = target: T32, ROCK2 (Homo sapiens, UniProt O75116)
# T32 construct: purchased Carna Biosciences
# From the text: as §1, §2
# [33] = target: T33, RSK2 (Homo sapiens, UniProt P51812)
# T33 construct: purchased Carna Biosciences
# T33 sequence (P51812 whole entry): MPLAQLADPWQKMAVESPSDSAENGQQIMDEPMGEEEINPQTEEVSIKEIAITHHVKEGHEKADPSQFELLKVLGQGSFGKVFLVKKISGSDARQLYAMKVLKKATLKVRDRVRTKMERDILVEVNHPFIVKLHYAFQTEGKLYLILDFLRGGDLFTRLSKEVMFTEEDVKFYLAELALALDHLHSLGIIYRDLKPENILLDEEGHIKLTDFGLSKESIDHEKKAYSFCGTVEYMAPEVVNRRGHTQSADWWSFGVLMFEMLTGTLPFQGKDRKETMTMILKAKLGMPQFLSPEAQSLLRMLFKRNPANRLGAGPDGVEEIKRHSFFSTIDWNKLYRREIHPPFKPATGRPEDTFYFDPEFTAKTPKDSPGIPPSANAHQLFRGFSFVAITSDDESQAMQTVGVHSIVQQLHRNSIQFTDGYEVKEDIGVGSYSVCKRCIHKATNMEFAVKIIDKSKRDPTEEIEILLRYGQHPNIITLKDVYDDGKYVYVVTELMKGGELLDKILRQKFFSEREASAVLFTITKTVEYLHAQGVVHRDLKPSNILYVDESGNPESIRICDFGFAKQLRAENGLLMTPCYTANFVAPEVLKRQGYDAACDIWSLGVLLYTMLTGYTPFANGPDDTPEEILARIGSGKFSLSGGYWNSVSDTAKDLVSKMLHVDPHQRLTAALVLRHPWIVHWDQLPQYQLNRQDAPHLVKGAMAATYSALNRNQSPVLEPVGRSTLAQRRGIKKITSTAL
# From the text: as §1, §2
# [34] = target: T34, RSK3 (Homo sapiens, UniProt Q15349)
# T34 construct: purchased Carna Biosciences
# From the text: as §1, §2
# [35] = target: T35, SLK (Homo sapiens, UniProt Q9H2G2)
# T35 construct: purchased Carna Biosciences
# From the text: as §1, §2
# [36] = target: T36, TNIK (Homo sapiens, UniProt Q9UKE5)
# T36 construct: purchased Carna Biosciences
# From the text: as §1, §2
compound,measurement,setting,value
"[H]/N=C1/NC(=O)C(=Cc2ccc3c(c2)CCO3)S1 [CaNDY, (Z)-5-[(2,3-dihydrobenzofuran-5-yl)methylene]-2-iminothiazolidin-4-one]",remaining activity at 1 µM,[1],97.5%
same,remaining activity at 1 µM,[2],103%
same,remaining activity at 1 µM,[3],95.4%
same,%Activity,[4],85.7%
same,remaining activity at 1 µM,[5],89.4%
same,remaining activity at 1 µM,[6],89.6%
same,remaining activity at 1 µM,[7],99.3%
same,remaining activity at 1 µM,[8],11%
same,%Activity,[9],104.8%
same,remaining activity at 1 µM,[10],99.2%
same,remaining activity at 1 µM,[11],100%
same,remaining activity at 1 µM,[12],95.3%
same,remaining activity at 1 µM,[13],96.6%
same,remaining activity at 1 µM,[14],98.5%
same,remaining activity at 1 µM,[15],109%
same,remaining activity at 1 µM,[16],101%
same,remaining activity at 1 µM,[17],22.6%
same,remaining activity at 1 µM,[18],22.4%
same,remaining activity at 1 µM,[19],95.7%
same,%Activity,[20],100.3%
same,%Activity,[21],102.6%
same,remaining activity at 1 µM,[22],100%
same,%Activity,[23],94.3%
same,%Activity,[24],100.9%
same,remaining activity at 1 µM,[25],92.4%
same,remaining activity at 1 µM,[26],98.4%
same,remaining activity at 1 µM,[27],91.6%
same,remaining activity at 1 µM,[28],95%
same,remaining activity at 1 µM,[29],65.1%
same,remaining activity at 1 µM,[30],91.7%
same,remaining activity at 1 µM,[31],102%
same,remaining activity at 1 µM,[32],103%
same,remaining activity at 1 µM,[33],91.1%
same,remaining activity at 1 µM,[34],91.4%
same,remaining activity at 1 µM,[35],96.9%
same,remaining activity at 1 µM,[36],60%
